Patent US20240180886A1, “INHIBITORS OF PROTEIN TYROSINE PHOSPHATASE, COMPOSITIONS, AND METHODS OF USE” (BRISTOL-MYERS SQUIBB COMPANY, priority 2022, published 2024)
pEC50, pIC50: −log10 of the molar value.

Assays:
[1] = target: T1, PTPN2 (Homo sapiens (Human), UniProt P17706); assay: Phosphatase activity assay using DiFMUP as substrate; assay type: biochemical; conditions: PTPN2 0.15 nM, 10 mM DTT
Procedure: The PTPN2 biochemical assay was performed as follows, a 5× stock solution of human PTPN2 (SRP5075, MilliporeSigma, Burlington, MA) and a 1.25× stock solution of DiFMUP (D6567, ThermoFisher Scientific, Waltham, MA), were prepared in 1× reaction buffer consisting of 50 mM HEPES, pH 7.4, 1 mM EDTA, 150 mM NaCl, 0.2 mg/mL BSA, 100 U/mL catalase and 10 mM DTT. […] of the DiFMUP substrate solution, for a final concentration of […] DiFMUP substrate, was added to a Corning 3574 384-well, white, non-binding surface microtiter plate containing […] of serially diluted test compounds prepared in DMSO. The reactions were started with the addition of […] of the enzyme solution, for a final PTPN2 concentration of 0.15 nM, and monitored every 105 seconds for 60 minutes at λEX 360/λEM 460 in a BioTek Synergy HTX plate reader (Agilent Technologies, Santa Clara, CA) at room temperature. The initial linear portions of the progress curves were fit according to a linear equation to yield the slopes and converted to % inhibition based on a value of 100% activity for the no inhibitor treated control. IC50 values of each compound were obtained by fitting the % inhibition-compound concentration curves using Dotmatics software (Dotmatics, Bishops Stortford, Hertfordshire, England),
Target sequence in this assay (P17706 other isoform, or with tags, fused parts or gaps isoform P17706-2): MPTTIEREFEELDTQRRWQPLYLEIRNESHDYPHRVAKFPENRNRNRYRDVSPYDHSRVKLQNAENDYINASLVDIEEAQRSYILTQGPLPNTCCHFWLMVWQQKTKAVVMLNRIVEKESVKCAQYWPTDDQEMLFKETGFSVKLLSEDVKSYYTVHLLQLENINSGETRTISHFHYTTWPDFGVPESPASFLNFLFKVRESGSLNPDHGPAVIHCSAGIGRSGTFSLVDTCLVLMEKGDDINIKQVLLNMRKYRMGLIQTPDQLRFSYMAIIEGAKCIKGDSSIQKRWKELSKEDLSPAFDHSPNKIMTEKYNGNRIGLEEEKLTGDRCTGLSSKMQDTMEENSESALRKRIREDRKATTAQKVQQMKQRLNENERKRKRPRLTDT

[2] = tested on: phosphorylated STAT1 in B16-F10 cells; assay: Phospho-STAT1 (Tyr701) HTRF assay in B16-F10 cells with IFN-gamma; assay type: cell-based; conditions: mouse IFN-gamma 100 ng/mL, 1 hour, read-out: pSTAT1 HTRF B16F10 EC50
Procedure: B16-F10 cells (ATCC, Manassas, VA, #CRL-6475) were cultured in DMEM growth medium (ThermoFisher Scientific, Waltham, MA, #11995-040) supplemented with 10% heat-inactivated FBS (ThermoFisher Scientific, #16140-071) and 1% pen/strep (ThermoFisher Scientific, #15140-122). The cells were seeded into a white opaque 384-well tissue culture treated microplate (PerkinElmer, Waltham, MA, #6007688) at a density of 10,000 cells/well in 20 uL total volume and incubated overnight at 37 C and 5% CO2. 30 nL of compounds dissolved in DMSO were then transferred from a source plate into target wells with the Echo650 acoustic liquid handler (Beckman Coulter, Indianapolis, IN). Negative control wells received 30 nL of DMSO only (0.15% final concentration). Plates were returned to the incubator for 1 hour and then cells were treated with either 5 uL of growth medium or 5 uL of growth medium containing 500 ng/mL of recombinant mouse IFN-gamma protein (R&D Systems, Minneapolis, MN, #485-MI/CF, 100 ng/mL final concentration) using the Assist automated pipetting platform (INTEGRA Biosciences, Hudson, NH). Plates were incubated at 37 C for 1 hour and assayed for phosphorylated STAT1 protein levels with the phospho-STAT1 (Tyr701) HTRF kit (Cisbio, Bedford, MA, #63ADK026PEH) according to the manufacturer's instructions.

[3] = target: T1, PTPN2; assay: PhosphoSens assay (PTPN2 BCHEM); assay type: biochemical; conditions: substrate AQT0264 20 μM, PTPN2 150 pM
Procedure: A PhosphoSens® kinase assay was performed as described by the vendor (AssayQuant Technologies, Marlborough, MA). Briefly, 1000× solutions of compounds were prepared in DMSO via serial dilution of the 10 mM DMSO stocks using 3-fold intervals in a 384-well reagent plate. 50 nL of the compound dilution series was then added to the corresponding wells of a 384-well assay plate. […] Finally, […] of 5× PTPN2 enzyme stock was added to each well of the assay plate for a final enzyme concentration of 150 pM. Reaction progress curves were collected by sampling fluorescence intensity at the excitation wavelength 360 nm (λex360) and emission wavelength 480 nm (λem480) every 71 seconds for one hour using a Synergy H4 plate reader (BioTek Instruments/Agilent Technologies, Winooski, VT) at room temperature.
Target sequence in this assay (P17706 whole entry): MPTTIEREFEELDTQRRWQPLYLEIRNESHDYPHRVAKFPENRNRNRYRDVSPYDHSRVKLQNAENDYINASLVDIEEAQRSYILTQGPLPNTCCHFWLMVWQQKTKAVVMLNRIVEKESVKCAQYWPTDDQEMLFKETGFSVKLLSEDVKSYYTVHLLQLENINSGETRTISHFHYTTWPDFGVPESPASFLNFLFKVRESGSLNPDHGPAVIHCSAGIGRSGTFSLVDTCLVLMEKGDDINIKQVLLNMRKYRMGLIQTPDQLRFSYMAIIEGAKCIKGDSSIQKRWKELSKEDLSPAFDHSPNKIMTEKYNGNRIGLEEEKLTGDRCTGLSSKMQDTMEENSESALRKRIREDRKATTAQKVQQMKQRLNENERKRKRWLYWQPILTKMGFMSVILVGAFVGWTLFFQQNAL

[4] = tested on: B16-F10 cells; assay: Cell proliferation assay (CellTiter-Glo) in B16-F10 cells with IFN-gamma; assay type: cell-based; conditions: 120 h, mouse IFN-gamma 10 ng/mL, read-out: PTPN2 Prolif 5d B16F10 EC50

Row | SMILES | pIC50 [1] | pEC50 [2] | pIC50 [3] | pEC50 [4]
1 | COc1ccc(NCc2cc(O)c(N3CC(=O)NS3(=O)=O)c(F)c2)nc1OC [EXAMPLE 36, 5-[4-[[(5,6-dimethoxy-2-pyridyl)amino]methyl]-2-fluoro-6-hydroxy-phenyl]-1,1-dioxo-1,2,5-thiadiazolidin-3-one] | 8.00 | 6.19 | 7.70 | 5.66
2 | O=C1CN(c2c(O)cc(CNc3cc(OCc4ccccc4)ccn3)cc2F)S(=O)(=O)N1 [EXAMPLE 46, 5-[4-[[(4-benzyloxy-2-pyridyl)amino]methyl]-2-fluoro-6-hydroxy-phenyl]-1,1-dioxo-1,2,5-thiadiazolidin-3-one] | 8.00 | 5.39 | 8.22 | 5.45
3 | Cc1cccc(NCc2cc(O)c(N3CC(=O)NS3(=O)=O)c(F)c2)n1 [EXAMPLE 17, 5-[2-fluoro-6-hydroxy-4-[[(6-methyl-2-pyridyl)amino]methyl]phenyl]-1,1-dioxo-1,2,5-thiadiazolidin-3-one] | 8.40 | 7.10 | 9.00 | 6.80
4 | COc1cccnc1NCc1cc(O)c(N2CC(=O)NS2(=O)=O)c(F)c1 [EXAMPLE 34, 5-[2-fluoro-6-hydroxy-4-[[(3-methoxy-2-pyridyl)amino]methyl]phenyl]-1,1-dioxo-1,2,5-thiadiazolidin-3-one] | 5.00 | < 4.82 | < 5.00 | < 4.82
5 | CCc1ccnc(NCc2cc(O)c(N3CC(=O)NS3(=O)=O)c(F)c2)c1 [EXAMPLE 13, 5-[4-[[(4-ethyl-2-pyridyl)amino]methyl]-2-fluoro-6-hydroxy-phenyl]-1,1-dioxo-1,2,5-thiadiazolidin-3-one] | 8.22 | 6.59 | 8.70 | 6.64
6 | Cc1cccnc1NCc1cc(O)c(N2CC(=O)NS2(=O)=O)c(F)c1 [EXAMPLE 15, 5-[2-fluoro-6-hydroxy-4-[[(3-methyl-2-pyridyl)amino]methyl]phenyl]-1,1-dioxo-1,2,5-thiadiazolidin-3-one] | 6.34 | 5.30 | 6.96 | 5.19
7 | O=C1CN(c2c(O)cc(CNc3ccc(OCc4ccccc4)cn3)cc2F)S(=O)(=O)N1 [EXAMPLE 47, 5-[4-[[(5-benzyloxy-2-pyridyl)amino]methyl]-2-fluoro-6-hydroxy-phenyl]-1,1-dioxo-1,2,5-thiadiazolidin-3-one] | 5.84 | 5.20 | 7.40 | 4.88
8 | Cc1ccc(C)c(NCc2cc(O)c(N3CC(=O)NS3(=O)=O)c(F)c2)n1 [EXAMPLE 20, 5-[4-[[(3,6-dimethyl-2-pyridyl)amino]methyl]-2-fluoro-6-hydroxy-phenyl]-1,1-dioxo-1,2,5-thiadiazolidin-3-one] | 6.72 | 5.44 | 7.10 | 5.40
9 | O=C1CN(c2c(O)cc(CNc3ccc(C4CC4)cn3)cc2F)S(=O)(=O)N1 [EXAMPLE 10, 5-[4-[[(5-cyclopropyl-2-pyridyl)amino]methyl]-2-fluoro-6-hydroxy-phenyl]-1,1-dioxo-1,2,5-thiadiazolidin-3-one] | 7.40 | 6.24 | 8.52 | 6.21

The next lines start with the values.

Row | pIC50 [1] | pEC50 [2] | pIC50 [3] | pEC50 [4] | SMILES
10 | 6.29 | 5.82 | 7.52 | 4.85 | CCc1cccnc1NCc1cc(O)c(N2CC(=O)NS2(=O)=O)c(F)c1 [EXAMPLE 23, 5-[4-[[(3-ethyl-2-pyridyl)amino]methyl]-2-fluoro-6-hydroxy-phenyl]-1,1-dioxo-1,2,5-thiadiazolidin-3-one]
11 | 6.85 | 5.75 | 7.70 | 5.76 | COc1cnc(NCc2cc(O)c(N3CC(=O)NS3(=O)=O)c(F)c2)c(OC)c1 [EXAMPLE 30, 5-[4-[[(3,5-dimethoxy-2-pyridyl)amino]methyl]-2-fluoro-6-hydroxy-phenyl]-1,1-dioxo-1,2,5-thiadiazolidin-3-one]
12 | 7.40 | 6.29 | 7.70 | 6.01 | Cc1cnc(NCc2cc(O)c(N3CC(=O)NS3(=O)=O)c(F)c2)cc1F [EXAMPLE 33, 5-[2-fluoro-4-[[(4-fluoro-5-methyl-2-pyridyl)amino]methyl]-6-hydroxy-phenyl]-1,1-dioxo-1,2,5-thiadiazolidin-3-one]
13 | 6.00 | < 4.82 | 6.24 | < 4.82 | O=C1CN(c2c(O)cc(CNc3ncccc3C(F)(F)F)cc2F)S(=O)(=O)N1 [EXAMPLE 3, 5-[2-fluoro-6-hydroxy-4-[[[3-(trifluoromethyl)-2-pyridyl]amino]methyl]phenyl]-1,1-dioxo-1,2,5-thiadiazolidin-3-one]
14 | 6.70 | 5.91 | 7.70 | 5.99 | O=C1CN(c2c(O)cc(CNc3cc(F)ccn3)cc2F)S(=O)(=O)N1 [EXAMPLE 16, 5-[2-fluoro-4-[[(4-fluoro-2-pyridyl)amino]methyl]-6-hydroxy-phenyl]-1,1-dioxo-1,2,5-thiadiazolidin-3-one]
15 | 6.46 | 5.61 | 7.10 | 5.57 | O=C1CN(c2c(O)cc(CNc3cc(C(F)(F)F)ccn3)cc2F)S(=O)(=O)N1 [EXAMPLE 2, 5-[2-fluoro-6-hydroxy-4-[[[4-(trifluoromethyl)-2-pyridyl]amino]methyl]phenyl]-1,1-dioxo-1,2,5-thiadiazolidin-3-one]
16 | 7.22 | 6.27 | 8.00 | 6.07 | COc1ccc(NCc2cc(O)c(N3CC(=O)NS3(=O)=O)c(F)c2)nc1 [EXAMPLE 38, 5-[2-fluoro-6-hydroxy-4-[[(5-methoxy-2-pyridyl)amino]methyl]phenyl]-1,1-dioxo-1,2,5-thiadiazolidin-3-one]
17 | 8.10 | 5.99 | 7.52 | 6.17 | CC(C)(C)c1ccc(NCc2cc(O)c(N3CC(=O)NS3(=O)=O)c(F)c2)nc1 [EXAMPLE 4, 5-[4-[[(5-tert-butyl-2-pyridyl)amino]methyl]-2-fluoro-6-hydroxy-phenyl]-1,1-dioxo-1,2,5-thiadiazolidin-3-one]
18 | 7.15 | 6.35 | 7.52 | 5.90 | O=C1CN(c2c(O)cc(CNc3ccccn3)cc2F)S(=O)(=O)N1 [EXAMPLE 37, 5-[2-fluoro-6-hydroxy-4-[(2-pyridylamino)methyl]phenyl]-1,1-dioxo-1,2,5-thiadiazolidin-3-one]
19 | 9.00 | 6.59 | 8.22 | 6.24 | O=C1CN(c2c(O)cc(CNc3cc(C4CC4)ccn3)cc2F)S(=O)(=O)N1 [EXAMPLE 1, 5-[4-[[(4-cyclopropyl-2-pyridyl)amino]methyl]-2-fluoro-6-hydroxy-phenyl]-1,1-dioxo-1,2,5-thiadiazolidin-3-one]
20 | 7.22 | 5.83 | 8.15 | 5.75 | CC(C)c1ccc(NCc2cc(O)c(N3CC(=O)NS3(=O)=O)c(F)c2)nc1 [EXAMPLE 45, 5-[2-fluoro-6-hydroxy-4-[[(5-isopropyl-2-pyridyl)amino]methyl]phenyl]-1,1-dioxo-1,2,5-thiadiazolidin-3-one]
